From patent US11638427B2, “Methods and compositions for altering secondary metabolites in plants” (Impello Biosciences, Inc, priority 2020, dated 2023)

Key:
[1] = test system: high-CBD hemp variety Cherry; experiment: Low-volume drone foliar applications of MeJA or MDJ on field grown high-CBD hemp, cannabinoid and terpene analysis; assay type: in vivo, Cannabis spp.; conditions: about 2 gallons per acre, at harvest; for increase in the ratio of CBD:THC compared to the Control group / alpha bisabolol change compared to the Control group: 7.5 mM; for increase in the ratio of CBD:THC compared to the Control group: morning applications about every 14 days
Excerpt: In previous foliar application experiments, plants were sprayed until the leaves were dripping. In order to assess the plant physiological response to low-volume foliar applications of two jasmonate elicitors, methyl jasmonate (MeJA) and methyl dihydro-jasmonate (MDJ), an outdoor experiment on field grown, high-CBD hemp was designed and performed during the summer of 2019 using an unmanned aerial drone as the application device. A single high-CBD hemp variety, “Cherry” (CBDRx, Longmont, Colo.) was used in an organic field plot in Pueblo, Colo., which was subdivided into four spatially separated quadrants of approximately 0.5 acres each as determined by drone and GPS mapping. Each 0.5-acre quadrant was assigned a treatment group, and the middle area of the entire plot, approximately 1 acre in area, was used as a “control” section of the field. Plants in the Control group received sprays of water and TWEEN®-20 only, identical to the treatment groups except for the exclusion of any jasmonate (i.e., [0 mM] MeJA and MDJ) active ingredients. MeJA and MDJ were applied at approximately 2 gallons per acre. In comparison, previous foliar applications wherein the plant was sprayed until the leaves dripped would equate to between 50-100 gallons per acre.
Treatments were separated into such “morning” and “evening” applications in an attempt to determine if the time of day influenced the plant response to the treatments. The four treatment groups were as follows: TIM=[7.5 mM] MDJ foliar applications in the morning; TIE=[7.5 mM] MDJ foliar applications in the evening; T2M=[7.5 mM] MeJA foliar applications in the morning; T2E [7.5 mM] MeJA foliar applications in the evening. All treatment groups were prepared the day of the application, and all applications were made successively with the same drone device. To reduce potential cross-contamination of the drone sprayer equipment, an acetic acid solution (5%) was run through the applicator equipment between each treatment application and control spray application, followed by plain water as a final rinse.
Plants were planted and allowed to grow in the normal fashion until the onset of flowering, which occurred around Jul. 25, 2019. At that point, foliar applications of the treatment were made approximately every 14 days with adjustments to the schedule as needed to avoid applying treatments on days with high winds, rain, or other suboptimal conditions for drone flight or treatment applications. Approximately every 14 days during the flowering cycle, flower samples from three randomly selected plants in each experimental group were taken, dried, and stored for analytical testing; however, the focus of this study was to determine the effect of the treatment groups versus the control group at harvest. Final flower samples were taken from 10 randomly selected plants in each experimental group on Sep. 12, 2019, labelled accordingly, dried, and sent to a third part commercial cannabis testing lab (Pro Verde, Milford, Mass.) for chemical analysis of the cannabinoids and terpene content individually using liquid chromatography (LC) and headspace gas chromatography (HS-GC), respectively. All samples were harvested on the day of a scheduled treatment prior to treatment.
Statistical analysis of the quantitative terpene data from plant samples taken at harvest was performed using R statistical software and corrected post-hoc using Tukey HSD method. For cannabinoid data from the same plant samples, ANOVA analysis was performed in Microsoft Excel with Tukey HSD post-hoc corrections.

[2] = test system: Fusarium ventricosum; experiment: MDJ spray on cannabis 'Jack Herer' plants infected with Fusarium ventricosum; assay type: in vivo
Experimental: To investigate the efficacy of MDJ at inhibiting Fusarium ventricosum, plants of the cannabis variety ‘Jack Herer’ were infected and treated with either 1 mM or 10 mM MDJ. Briefly, after two weeks in vegetative light cycle, ‘Jack Herer’ plants were moved to flowering cycle and sprayed with 1 mM or 10 mM methyl dihydrojasmonate on 4/12/21. After 72 hours (4/15/21) all plants were infected with Fusarium ventricosum cultured on potato dextrose agar. Plants were infected using a fungal pick to inoculate the fungal culture at the stem of the plant. No visual signs of infection were observed after two weeks, so all plants were reinfected using a PDA and liquid culture of F. ventricosum on 4/28/21 and again on 5/14/21. Plants were harvested and hung to dry on 6/11/21 and dry weights recorded on 6/16/21. After harvest, stem tissue was taken from each treatment group and plated onto potato dextrose agar. Fusarium ventricosum was reisolated from each group.

[3] = test system: oyster mushroom; experiment: Fungal plug growth on jasmonate-infused PDA plates; assay type: cell-based; conditions: all concentrations (1 mM, 4.25 mM, 10 mM) in PDA; 72 hours and 10 days
Experimental: (§1) MDJ (TCI, CAS No.: 24851-98-7) and CJ were infused into potato dextrose agar (PDA, VWR Cat No.: 90003-494) petri dishes (100×15 mm VWR, Cat No: 25384-094) at concentrations ranging from 1 mM, 4.25 mM, and 10 mM. Each treatment was prepared using a technical grade stock solution of pure chemical (CJ or MDJ) diluted with TWEEN®-20 (VWR, CAS No.: […]). Culturable oyster mushroom and seedling mold served to create fungal mycelial plugs using a sterile 1 mL pipette tip (Eppendorf, Cat No.: 022491458) held upside down. The tips were used to make circle excisions (i.e., fungal plugs) from a mycelial mat grown on PDA with no biochemical infusions. Fungal pugs were then transferred to PDA infused with varying concentrations of CJ or MDJ, and control plates (no CJ or MDJ infusion) to monitor fungal growth at room temperature over time.

[4] = test system: strawberries; experiment: Fruit MDJ dips, 2 weeks observation; assay type: in vivo
[5] = test system: Penicillium spp.; experiment: Mold growth on jasmonate-infused plates, mold isolated from pineapple; assay type: cell-based; conditions: 5 mM, 10 mM, or 20 mM in plates
Experimental: as §1
Based on the above results in Cannabis spp., additional fungi from various crops was sampled and tested. Plates comprising various concentrations of MDJ or MJ were prepared as described above.

| SMILES | increase in the ratio of CBD:THC compared to the Control group [1] [%] | alpha bisabolol change compared to the Control group [1] | alpha-humulene increase compared to the Control group ([1]; Treatment 1, 7.5 mM) [%] | beta-caryophyllene increase compared to the Control group ([1]; Treatment 1, 7.5 mM) [%] | guaiol increase compared to the Control group ([1]; Treatment 1, 7.5 mM) [%] | trans-nerolidol increase compared to the Control group ([1]; Treatment 1, 7.5 mM) [%] | flowers compared to the control ([2]; 1 mM and 10 mM spray) | leaves compared to the control ([2]; 1 mM and 10 mM spray) | plant biomass (dry weight) compared to the control group ([2]; 1 mM and 10 mM spray 72 hours before infection) | Oyster mushroom fungal growth compared to control [3] | mold ([4]; dip 1 M) | mold ([4]; dip 5, 10, 20 mM and control) | growth of mold isolated from pineapple [5] |
| --- | --- | --- | --- | --- | --- | --- | --- | --- | --- | --- | --- | --- | --- |
| CCCCCC1C(=O)CCC1CC(=O)OC (stereo not drawn) [MDJ, methyl dihydrojasmonate] | 2.53 | 17.2% | 3.15 | 3.3 | 5.66 | 66.66 | larger flowers | more yellow, wilting leaves | prevention in biomass reduction | showed inhibition | prohibited mold for two weeks | mold in all groups after one week | effective at preventing the growth |
| CC/C=C\C[C@H]1C(=O)CC[C@@H]1CC(=O)OC [MeJA, Methyl Jasmonate] | 1.76 | decreased | – | – | – | – | – | – | – | – | – | – | – |
